Measured values reported in patent US11814367B2, “Inhibitors of glycogen synthase 1 (GYS1) and methods of use thereof” (Maze Therapeutics, Inc., priority 2021, dated 2023).

What was measured:
[1] = target: hGYS1 enzyme (recombinant hGYS1/GN1 protein) (Homo sapiens (Human), UniProt P13807); assay: GYS1 coupled enzyme assay (PK/LDH); format: biochemical; conditions: hGYS1/GN1 50 nM, UDP-Glucose 0.8 mM, G6P 1 mM; geometric mean of at least 2 runs
[2] = test system: hGYS1 enzyme / glycogen synthesis in HeLa cells; assay: GYS1 cell based assay (glycogen synthesis, Glucose-glo); parameters: species or system human; conditions: Homo sapiens, HeLa, 24 h, 24 h incubation, 20 mM glucose, geometric mean of at least 2 runs
Method in brief: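 HeLa cells starved 24 h in medium containing only 1× Glutamax were plated onto compound in medium with 20 mM glucose (1% DMSO final) for 24 h, 37 °C, 5% CO2. Acid lysates were Tris-quenched, glucoamylase-digested (pH 5.3, 1 h, 37 °C) and read by Glucose-glo luminescence. IC50 came from Hill fits, as geometric mean of ≥2 runs.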

[3] = target: hGYS2 enzyme (recombinant hGYS2/GN1 protein) (Homo sapiens (Human), UniProt P54840); assay: GYS2 coupled enzyme assay (PK/LDH); format: biochemical; conditions: geometric mean of at least 2 assay runs on separate days, read-out: Avg_IC50
Method in brief: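 hGYS2/GN1 200 nM; UDP-Glc 2 mM; glycogen 0.2%; G6P 2 mM; PEP 2 mM, NADH 0.6 mM, PK/LDH 20 U/mL. 50 mM Tris pH 7.5, MgCl2, KCl, BSA, TCEP, 2.5% DMSO. Kinetic A340, 10 min. IC50 = geomean of ≥2 runs.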

hGYS2 enzyme (recombinant hGYS2/GN1 protein), sequence (P54840 whole entry): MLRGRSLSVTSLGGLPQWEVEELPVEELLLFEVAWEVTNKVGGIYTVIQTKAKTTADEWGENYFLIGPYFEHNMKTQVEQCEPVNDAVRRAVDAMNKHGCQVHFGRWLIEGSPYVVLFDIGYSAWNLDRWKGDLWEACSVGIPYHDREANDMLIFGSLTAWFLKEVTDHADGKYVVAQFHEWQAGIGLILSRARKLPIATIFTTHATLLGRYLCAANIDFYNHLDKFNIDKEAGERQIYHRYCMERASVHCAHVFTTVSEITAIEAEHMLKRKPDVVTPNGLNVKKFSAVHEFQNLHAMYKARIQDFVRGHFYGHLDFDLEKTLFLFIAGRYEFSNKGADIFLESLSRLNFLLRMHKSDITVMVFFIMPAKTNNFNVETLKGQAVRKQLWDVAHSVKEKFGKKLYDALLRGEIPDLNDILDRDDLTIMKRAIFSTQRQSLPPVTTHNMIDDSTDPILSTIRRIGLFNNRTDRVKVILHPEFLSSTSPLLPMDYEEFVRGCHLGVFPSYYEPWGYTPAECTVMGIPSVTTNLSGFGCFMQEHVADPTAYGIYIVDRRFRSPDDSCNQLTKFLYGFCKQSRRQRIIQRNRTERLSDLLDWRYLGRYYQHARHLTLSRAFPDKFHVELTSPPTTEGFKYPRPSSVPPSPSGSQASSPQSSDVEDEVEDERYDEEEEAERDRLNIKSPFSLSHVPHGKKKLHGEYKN
hGYS2 enzyme (recombinant hGYS2/GN1 protein), sequence (P46976 whole entry partner): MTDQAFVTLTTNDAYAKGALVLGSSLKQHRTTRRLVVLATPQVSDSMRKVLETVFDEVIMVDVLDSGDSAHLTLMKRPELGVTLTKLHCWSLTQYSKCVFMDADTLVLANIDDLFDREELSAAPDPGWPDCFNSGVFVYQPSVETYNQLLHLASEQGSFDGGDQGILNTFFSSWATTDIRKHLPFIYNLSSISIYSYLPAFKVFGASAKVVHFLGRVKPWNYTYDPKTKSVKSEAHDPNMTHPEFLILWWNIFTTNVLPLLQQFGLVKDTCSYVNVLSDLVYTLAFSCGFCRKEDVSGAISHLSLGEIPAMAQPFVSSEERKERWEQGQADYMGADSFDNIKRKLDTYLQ
hGYS1 enzyme (recombinant hGYS1/GN1 protein), sequence (P13807 whole entry): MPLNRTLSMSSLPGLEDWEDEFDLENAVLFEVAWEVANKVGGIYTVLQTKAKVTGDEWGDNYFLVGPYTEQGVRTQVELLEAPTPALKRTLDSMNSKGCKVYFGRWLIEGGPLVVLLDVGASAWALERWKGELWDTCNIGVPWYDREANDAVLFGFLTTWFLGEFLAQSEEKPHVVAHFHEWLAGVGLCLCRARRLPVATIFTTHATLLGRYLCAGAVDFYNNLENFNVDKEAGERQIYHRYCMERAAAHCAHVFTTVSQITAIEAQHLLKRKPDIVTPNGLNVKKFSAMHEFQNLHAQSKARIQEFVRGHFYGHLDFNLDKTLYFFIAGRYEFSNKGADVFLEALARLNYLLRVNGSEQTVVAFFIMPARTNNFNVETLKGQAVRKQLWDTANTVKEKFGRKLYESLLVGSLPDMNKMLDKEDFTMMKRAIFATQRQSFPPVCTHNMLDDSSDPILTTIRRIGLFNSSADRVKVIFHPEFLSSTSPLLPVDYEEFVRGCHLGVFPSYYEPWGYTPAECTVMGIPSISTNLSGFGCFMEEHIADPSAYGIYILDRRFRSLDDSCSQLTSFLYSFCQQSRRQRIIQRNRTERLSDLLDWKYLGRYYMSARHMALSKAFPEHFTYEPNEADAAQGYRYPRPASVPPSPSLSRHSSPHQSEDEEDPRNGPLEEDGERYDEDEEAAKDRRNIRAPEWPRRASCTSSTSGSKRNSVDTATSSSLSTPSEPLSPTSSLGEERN
hGYS1 enzyme (recombinant hGYS1/GN1 protein), sequence (P46976 whole entry partner): as the sequence (P46976 whole entry partner) above

| IC50 [1] | IC50 [2] | IC50 [3] | Compound |
| --- | --- | --- | --- |
| 86 nM | 2250 nM | > 100000 nM | CC(=O)NCc1cnnn1CC(=O)N1C[C@H](F)C[C@H]1C(=O)N[C@@H](c1ccccc1)c1ccc(C(C)C)cc1 [Compound 243, (2S,4R)-1-{2-[5-(acetamidomethyl)-1H-1,2,3-triazol-1-yl]acetyl}-4-fluoro-N-[(S)-phenyl[4-(propan-2-yl)phenyl]methyl]pyrrolidine-2-carboxamide] |
| 77 nM | 1800 nM | > 100000 nM | CC(C)c1ccc([C@@H](NC(=O)[C@@H]2C[C@@H](F)CN2C(=O)Cc2cnn[nH]2)c2ccccc2)nc1 [Compound 244, (2S,4R)-1-(2-(1H-1,2,3-triazol-5-yl)acetyl)-4-fluoro-N-((S)-(5-isopropylpyridin-2-yl)(phenyl)methyl)pyrrolidine-2-carboxamide] |
| 33 nM | 620 nM | > 100000 nM | Cc1n[nH]c(C)c1CC(=O)N1C[C@H](F)C[C@H]1C(=O)N[C@@H](c1ccccc1)c1ccc(C(C)C)cn1 [Compound 246, (2S,4R)-1-[2-(3,5-dimethyl-1H-pyrazol-4-yl)acetyl]-4-fluoro-N-[(S)-phenyl[5-(propan-2-yl)pyridin-2-yl]methyl]pyrrolidine-2-carboxamide] |
| 10 nM | 180 nM | > 100000 nM | CC(C)c1ccc([C@@H](NC(=O)[C@@H]2C[C@@H](F)CN2C(=O)Cc2cccc3ncccc23)c2ccccc2)nc1 [Compound 247, (2S,4R)-4-fluoro-N-[(S)-phenyl[5-(propan-2-yl)pyridin-2-yl]methyl]-1-[2-(quinolin-5-yl)acetyl]pyrrolidine-2-carboxamide] |
| 12 nM | 200 nM | > 100000 nM | CC(C)c1ccc([C@@H](NC(=O)[C@@H]2C[C@@H](F)CN2C(=O)Cn2cnc3ccccc32)c2ccccc2)nc1 [Compound 248, (2S,4R)-1-[2-(1H-1,3-benzodiazol-1-yl)acetyl]-4-fluoro-N-[(S)-phenyl[5-(propan-2-yl)pyridin-2-yl]methy]pyrrolidine-2-carboxamide] |
| 21 nM | 1150 nM | > 100000 nM | Cc1cn(CC(=O)N2C[C@H](F)C[C@H]2C(=O)N[C@@H](c2ccccc2)c2ccc(C(C)C)cn2)c(=O)[nH]c1=O [Compound 249, (2S,4R)-4-fluoro-1-[2-(5-methyl-2,4-dioxo-1,2,3,4-tetrahydropyrimidin-1-yl)acetyl]-N-[(S)-phenyl[5-(propan-2-yl)pyridin-2-yl]methyl]pyrrolidine-2-carboxamide] |
| 43 nM | 1270 nM | > 100000 nM | CC(C)c1ccc([C@@H](NC(=O)[C@@H]2C[C@@H](F)CN2C(=O)CNC(=O)N(C)C)c2ccccc2)nc1 [Compound 250, (2S,4R)-1-{2-[(dimethylcarbamoyl)amino]acetyl}-4-fluoro-N-[(S)-phenyl[5-(propan-2-yl)pyridin-2-yl]methyl]pyrrolidine-2-carboxamide] |
| 186 nM | 2480 nM | > 100000 nM | CC(C)c1ccc([C@@H](NC(=O)[C@@H]2C[C@@H](F)CN2C(=O)Cn2cnnn2)c2ccccc2)nc1 [Compound 252, (2S,4R)-4-fluoro-N-[(S)-phenyl[5-(propan-2-yl)pyridin-2-yl]methyl}-1-[2-(1H-1,2,3-tetrazol-1-yl)acetyl]pyrrolidine-2-carboxamide] |
| 67 nM | 1090 nM | > 100000 nM | CC(C)c1ccc([C@@H](NC(=O)[C@@H]2C[C@@H](F)CN2C(=O)Cc2nnc(C(F)F)o2)c2ccccc2)nc1 [Compound 253, (2S,4R)-1-{2-[5-(difluoromethyl)-1,3,4-oxadiazol-2-yl]acetyl}-4-flouro-N-[(S)-phenyl[5-(propan-2-yl)pyridin-2-yl]methyl]pyrrolidine-2-carboxamide] |
| 75 nM | 1230 nM | > 100000 nM | CC(C)c1ccc([C@@H](NC(=O)[C@@H]2C[C@@H](F)CN2C(=O)Cn2nnnc2C(F)F)c2ccccc2)nc1 [Compound 254, (2S,4R)-1-{2-[5-(difluoromethyl)-1H-1,2,3-tetrazol-1-yl]acetyl}-4-fluoro-N-[(S)-phenyl[5-(propan-2-yl)pyridin-2-yl]methyl]pyrrolidine-2-carboxamide] |
| 88 nM | 1010 nM | > 100000 nM | CC(C)c1ccc([C@@H](NC(=O)[C@@H]2C[C@@H](F)CN2C(=O)Cn2nnc(C(F)(F)F)n2)c2ccccc2)nc1 [Compound 255, (2S,4R)-4-fluoro-N-[(S)-phenyl[5-(propan-2-yl)pyridin-2-yl]methyl]-1-{2-[5-(trifluoromethyl)-2H-1,2,3,4-tetrazol-2-yl]acetyl}pyrrolidine-2-carboxamide] |
| 39 nM | 990 nM | > 100000 nM | CC(C)c1ccc([C@@H](NC(=O)[C@@H]2C[C@@H](F)CN2C(=O)Cn2nnc(C(F)F)n2)c2ccccc2)nc1 [Compound 256, (2S,4R)-1-{2-[5-(difluoromethyl)-2H-1,2,3,4-tetrazol-2-yl]acetyl}-4-fluoro-N-[(S)-phenyl[5-(propan-2-yl)pyridin-2-yl]methyl]pyrrolidine-2-carboxamide] |
| 7 nM | 240 nM | > 100000 nM | Cc1ccc2c(CC(=O)N3C[C@H](F)C[C@H]3C(=O)N[C@@H](c3ccccc3)c3ccc(C(C)C)cn3)cccc2n1 [Compound 257, (2S,4R)-4-fluoro-1-[2-(2-methylquinolin-5-yl)acetyl]-N-[(S)-phenyl[5-(propan-2-yl)pyridin-2-yl]methyl]pyrrolidine-2-carboxamide] |
| 26 nM | 740 nM | > 100000 nM | CC(C)c1ccc([C@@H](NC(=O)[C@@H]2C[C@@H](F)CN2C(=O)Cc2cccn3c(=O)[nH]nc23)c2ccccc2)nc1 [Compound 258, (2S,4R)-4-fluoro-1-(2-{3-oxo-2H,3H-[1,2,4]triazolo[4,3-a]pyridin-8-yl}acetyl)-N-[(S)-phenyl[5-(propan-2-yl)pyridin-2-yl]methyl]pyrrolidine-2-carboxamide] |
| 15 nM | 280 nM | > 100000 nM | CC(C)c1ccc([C@@H](NC(=O)[C@@H]2C[C@@H](F)CN2C(=O)Cn2ncc(N(C)C)n2)c2ccccc2)nc1 [Compound 259, (2S,4R)-1-{2-[4-(dimethylamino)-2H-1,2,3-triazol-2-yl]acety}-4-fluoro-N-[(S)-phenyl[5-(propan-2-yl)pyridin-2-yl]methyl]pyrrolidine-2-carboxamide] |
| 35 nM | 530 nM | > 100000 nM | CC(C)c1ccc([C@@H](NC(=O)[C@@H]2C[C@@H](F)CN2C(=O)Cn2cc(N(C)C)nn2)c2ccccc2)nc1 [Compound 260, (2S,4R)-1-{2-[4-(dimethylamino)-1H-1,2,3-triazol-1-yl]acetyl}-4-fluoro-N-[(S)-phenyl[5-(propan-2-yl)pyridin-2-yl]methyl]pyrrolidine-2-carboxamide] |
| 59 nM | 1800 nM | > 100000 nM | CNC(=O)NCC(=O)N1C[C@H](F)C[C@H]1C(=O)N[C@@H](c1ccccc1)c1ccc(C(C)C)cn1 [Compound 261, (2S,4R)-4-fluoro-1-{2-[(methylcarbamoyl)amino]acetyl}-N-[(S)-phenyl[5-(propan-2-yl)pyridin-2-yl]methyl]pyrrolidine-2-carboxamide] |
| 62 nM | 3630 nM | > 100000 nM | CC(C)c1ccc([C@@H](NC(=O)[C@@H]2C[C@@H](F)CN2C(=O)CNC(N)=O)c2ccccc2)nc1 [Compound 262, (2S,4R)-1-[2-(carbamoylamino)acetyl]-4-fluoro-N-[(S)-phenyl[5-(propan-2-yl)pyridin-2-yl]methyl]pyrrolidine-2-carboxamide] |
| 80 nM | 1950 nM | > 100000 nM | CC(C)c1ccc([C@@H](NC(=O)[C@@H]2C[C@@H](F)CN2C(=O)Cc2nn(C)c(=O)[nH]2)c2ccccc2)nc1 [Compound 263, (2S,4R)-4-fluoro-1-[2-(1-methyl-5-oxo-4,5-dihydro-1H-1,2,4-triazol-3-yl)acetyl]-N-[(S)-phenyl[5-(propan-2-yl)pyridin-2-yl]methyl]pyrrolidine-2-carboxamide] |
| 130 nM | 4290 nM | > 100000 nM | CC(C)c1ccc([C@@H](NC(=O)[C@@H]2C[C@@H](F)CN2C(=O)Cc2n[nH]c(=O)n2C)c2ccccc2)nc1 [Compound 264, (2S,4R)-4-fluoro-1-[2-(4-methyl-5-oxo-4,5-dihydro-1H-1,2,4-triazol-3-yl)acetyl]-N-[(S)-phenyl[5-(propan-2-yl)pyridin-2-yl]methyl]pyrrolidine-2-carboxamide] |
| 41 nM | 830 nM | > 100000 nM | CC(C)c1ccc([C@@H](NC(=O)[C@@H]2C[C@@H](F)CN2C(=O)CNC(=O)N2CCC2)c2ccccc2)nc1 [Compound 265, (2S,4R)-1-{2-[(azetidine-1-carbonyl)amino]acetyl}-4-fluoro-N-[(S)-phenyl[5-(propan-2-yl)pyridin-2-yl]methyl]pyrrolidine-2-carboxamide] |
| 89 nM | 1220 nM | > 100000 nM | CC(C)c1ccc([C@@H](NC(=O)[C@@H]2C[C@@H](F)CN2C(=O)Cc2nn(C)c(=O)o2)c2ccccc2)nc1 [Compound 266, (2S,4R)-4-fluoro-1-[2-(4-methyl-5-oxo-4,5-dihydro-1,3,4-oxadiazol-2-yl)acetyl]-N-[(S)-phenyl[5-(propan-2-yl)pyridin-2-yl]methyl]pyrrolidine-2-carboxamide] |
